# Patent publication EP0341527A2, “Agent for increasing animal growth” (HOECHST AKTIENGESELLSCHAFT, priority 1988, dated 1989)
# Experiments:
# männlichen Ratten = assay: Feeding trial in male rats (growth, feed intake, feed conversion); type: in vivo; conditions: for Futterverwertung (g Futter/g Gewichtszunahme) relativ zur Kontrollgruppe in % / mittlere Futterverwertung relativ zur Kontrollgruppe in %: lower number = better feed conversion; for mittlere Futterverwertung relativ zur Kontrollgruppe in %: mean over 5-40 ppm Forskolin; for Futteraufnahme (g/d) / Futteraufnahme relativ zur Kontrolle / Gewicht (g) am Ende / Gewichtszunahme relativ zur Kontrolle (%): 28 d
# From the text: In einem Fütterungsversuch mit 60 männlichen Ratten im Gewichtsabschnitt von 40 bis 170 g Lebendmasse wurde die Wirkung von 5, 10, 20 und 40 ppm Forskolin im Futter bei zwei verschiedenen Proteingehalten der Diäten (15 und 20 Gew.-% für eine suboptimale bzw. optimale Versorgung) auf das Wachstum, die Futteraufnahme und die Futterverwertung im Vergleich zum Futter ohne Gehalt an Forskolin untersucht. Die Diäten (Zusammensetzung siehe Tabelle 1) waren mit 16,6 und 16,8 kJ/g Trockensubstanz isokalorisch. Jeweils sechs Tiere wurden mit Futter gleichen Gehalts an Forskolin und Protein gefüttert und die Resultate für die Auswertung ermittelt. Die jeweiligen sechs Tiere wurden zu je zweien in Makrolonkäfigen in einer Klimakammer bei konstant 25°C und 65 % relativer Luftfeuchte 28 Tage lang gehalten.
# [1] = tested on: Männliche Lohmann-Masthähnchen; assay: Feeding trial in broilers (growth, feed intake, feed conversion); type: in vivo, Broilern; conditions: for Futteraufnahme (g/d) / Futteraufnahme, prozentualer Wert relativ zur Kontrollgruppe / Gewicht (Masse) am Ende, prozentualer Wert relativ zur Kontrollgruppe / Massezunahme, prozentualer Wert relativ zur Kontrollgruppe / Futterverwertung, prozentualer Wert relativ zur Kontrollgruppe / Gewicht (Masse) (g) am Ende / Massezunahme (g/d) / Futterverwertung g Futter/g Zunahme: 22 wt% protein; for Futterverwertung, prozentualer Wert relativ zur Kontrollgruppe / Futterverwertung g Futter/g Zunahme: lower = better; for Gewicht (Masse) (g) am Ende / Massezunahme (g/d) / Futterverwertung g Futter/g Zunahme: mean ± spread
# Protocol: Männliche Lohmann-Masthähnchen mit einer Lebendmasse zwischen 35 und 45 g wurden in Gruppen von jeweils 20 Tieren pro Behandlung (100 cm²/Tier) auf einer Einstreu aus Hobelspänen bei 24-stündiger Beleuchtung und einer Temperatur von 36 ± 1°C bis zum 21. Versuchstag und 26 ± 1°C vom 22. bis zum 35. Versuchstag gehalten. Das Futter wurde ad libitum angeboten. Die Zusammensetzung des Futters (ohne Wirkstoff) ist in Tabelle 5 angegeben. Der Proteingehalt betrug 22 Gew.-% (entsprechend dem Bedarf). Forskolin wurde als Wurzelmehl über eine Glucose-Vormischung in die Ration eingebracht. Tabelle 5
# [2] = 15 wt% crude protein diet, 5 ppm Forskolin in feed
# [3] = 15 wt% crude protein diet, 10 ppm Forskolin in feed
# [4] = 15 wt% crude protein diet, 20 ppm Forskolin in feed
# [5] = 15 wt% crude protein diet, 40 ppm Forskolin in feed
# [6] = 20 wt% crude protein diet, 5 ppm Forskolin in feed
# [7] = 20 wt% crude protein diet, 10 ppm Forskolin in feed
# [8] = 20 wt% crude protein diet, 20 ppm Forskolin in feed
# [9] = 20 wt% crude protein diet, 40 ppm Forskolin in feed
# [10] = 2 ppm Forskolin in feed (as root meal)
# [11] = 4 ppm Forskolin in feed (as root meal)
# [12] = 8 ppm Forskolin in feed (as root meal)
# [13] = 16 ppm Forskolin in feed (as root meal)
# [14] = 32 ppm Forskolin in feed (as root meal)
# [15] = broilers, 'up to', 2-32 ppm Forskolin in feed
compound,measurement,setting,value
C=C[C@@]1(C)CC(=O)[C@]2(O)[C@@]3(C)[C@@H](O)CCC(C)(C)[C@@H]3[C@H](O)[C@H](OC(C)=O)[C@@]2(C)O1 [Forskolin],Zuwachs,"männlichen Ratten; 15 % protein, 5 ppm Forskolin",ca. 91 g
same,Futterverwertung (g Futter/g Gewichtszunahme) relativ zur Kontrollgruppe in %,"männlichen Ratten; 15 % protein, 5 ppm Forskolin","107,7%"
same,Zuwachs,"männlichen Ratten; 15 % protein, 10 ppm Forskolin",~115 g
same,Futterverwertung (g Futter/g Gewichtszunahme) relativ zur Kontrollgruppe in %,"männlichen Ratten; 15 % protein, 10 ppm Forskolin","100,8%"
same,Zuwachs,"männlichen Ratten; 15 % protein, 20 ppm Forskolin",~122 g
same,Futterverwertung (g Futter/g Gewichtszunahme) relativ zur Kontrollgruppe in %,"männlichen Ratten; 15 % protein, 20 ppm Forskolin","97,3%"
same,Futterverwertung (g Futter/g Gewichtszunahme) relativ zur Kontrollgruppe in %,"männlichen Ratten; 15 % protein, 40 ppm Forskolin","109,3%"
same,mittlere Futterverwertung relativ zur Kontrollgruppe in %,männlichen Ratten; 15 % protein,"103,7%"
same,gesteigerte Zunahme an Lebendmasse im Vergleich zur entsprechenden Kontrollgruppe,"männlichen Ratten; 15 and 20 wt% protein, up to 20 ppm Forskolin, within 28 days, 'up to'",≤ 39%
same,Gewichtszunahme (g/28 d),männlichen Ratten; [2],"90,9 g/28 d"
same,Futteraufnahme (g/d),männlichen Ratten; [2],"9,07 g/d"
same,Futteraufnahme relativ zur Kontrolle,männlichen Ratten; [2],"111,9"
same,Gewicht (g) am Ende,männlichen Ratten; [2],"131,3 g"
same,Gewichtszunahme relativ zur Kontrolle (%),männlichen Ratten; [2],"103,6%"
same,Gewichtszunahme (g/28 d),männlichen Ratten; [3],"115,1 g/28 d"
same,Futteraufnahme (g/d),männlichen Ratten; [3],"10,70 g/d"
same,Futteraufnahme relativ zur Kontrolle,männlichen Ratten; [3],"132,2"
same,Gewicht (g) am Ende,männlichen Ratten; [3],"156,0 g"
same,Gewichtszunahme relativ zur Kontrolle (%),männlichen Ratten; [3],"131,2%"
same,Gewichtszunahme (g/28 d),männlichen Ratten; [4],"122,0 g/28 d"
same,Futteraufnahme (g/d),männlichen Ratten; [4],"11,00 g/d"
same,Futteraufnahme relativ zur Kontrolle,männlichen Ratten; [4],"135,7"
same,Gewicht (g) am Ende,männlichen Ratten; [4],"162,6 g"
same,Gewichtszunahme relativ zur Kontrolle (%),männlichen Ratten; [4],"139,1%"
same,Gewichtszunahme (g/28 d),männlichen Ratten; [5],"81,8 g/28 d"
same,Futteraufnahme (g/d),männlichen Ratten; [5],"8,26 g/d"
same,Futteraufnahme relativ zur Kontrolle,männlichen Ratten; [5],"101,8"
same,Gewicht (g) am Ende,männlichen Ratten; [5],"122,3 g"
same,Gewichtszunahme relativ zur Kontrolle (%),männlichen Ratten; [5],"93,3%"
same,Futterverwertung erhöht,"männlichen Ratten; 20 % protein content, 'up to about', refers to mean feed conversion of Table 4",≤ 8%
same,Futterverwertung (g Futter/g Gewichtszunahme) relativ zur Kontrollgruppe in %,"männlichen Ratten; 20 % protein, 5 ppm Forskolin","92,4%"
same,Zuwachs,"männlichen Ratten; 20 % protein, 10 ppm Forskolin",~113 g
same,Futterverwertung (g Futter/g Gewichtszunahme) relativ zur Kontrollgruppe in %,"männlichen Ratten; 20 % protein, 10 ppm Forskolin","93,8%"
same,Zuwachs,"männlichen Ratten; 20 % protein, 20 ppm Forskolin",~121 g
same,Futterverwertung (g Futter/g Gewichtszunahme) relativ zur Kontrollgruppe in %,"männlichen Ratten; 20 % protein, 20 ppm Forskolin","90,5%"
same,Futterverwertung (g Futter/g Gewichtszunahme) relativ zur Kontrollgruppe in %,"männlichen Ratten; 20 % protein, 40 ppm Forskolin","92,0%"
same,mittlere Futterverwertung relativ zur Kontrollgruppe in %,männlichen Ratten; 20 % protein,"92,2%"
same,Gewichtszunahme (g/28 d),männlichen Ratten; [6],"117,6 g/28 d"
same,Futteraufnahme (g/d),männlichen Ratten; [6],"10,70 g/d"
same,Futteraufnahme relativ zur Kontrolle,männlichen Ratten; [6],"115,7"
same,Gewicht (g) am Ende,männlichen Ratten; [6],"157,7 g"
same,Gewichtszunahme relativ zur Kontrolle (%),männlichen Ratten; [6],"124,4%"
same,Gewichtszunahme (g/28 d),männlichen Ratten; [7],"112,9 g/28 d"
same,Futteraufnahme (g/d),männlichen Ratten; [7],"10,40 g/d"
same,Futteraufnahme relativ zur Kontrolle,männlichen Ratten; [7],"112,4"
same,Gewicht (g) am Ende,männlichen Ratten; [7],"153,2 g"
same,Gewichtszunahme relativ zur Kontrolle (%),männlichen Ratten; [7],"119,9%"
same,Gewichtszunahme (g/28 d),männlichen Ratten; [8],"120,5 g/28 d"
same,Futteraufnahme (g/d),männlichen Ratten; [8],"10,70 g/d"
same,Futteraufnahme relativ zur Kontrolle,männlichen Ratten; [8],"115,7"
same,Gewicht (g) am Ende,männlichen Ratten; [8],"161,9 g"
same,Gewichtszunahme relativ zur Kontrolle (%),männlichen Ratten; [8],"127,9%"
same,Gewichtszunahme (g/28 d),männlichen Ratten; [9],"103,1 g/28 d"
same,Futteraufnahme (g/d),männlichen Ratten; [9],"9,31 g/d"
same,Futteraufnahme relativ zur Kontrolle,männlichen Ratten; [9],"100,6"
same,Gewicht (g) am Ende,männlichen Ratten; [9],"143,0 g"
same,Gewichtszunahme relativ zur Kontrolle (%),männlichen Ratten; [9],"109,4%"
same,Futteraufnahme (g/d),[1]; [10],"88,4 g/d"
same,"Futteraufnahme, prozentualer Wert relativ zur Kontrollgruppe",[1]; [10],"104,0%"
same,"Gewicht (Masse) am Ende, prozentualer Wert relativ zur Kontrollgruppe",[1]; [10],"108,5%"
same,"Massezunahme, prozentualer Wert relativ zur Kontrollgruppe",[1]; [10],"109,0%"
same,"Futterverwertung, prozentualer Wert relativ zur Kontrollgruppe",[1]; [10],"94,6%"
same,Gewicht (Masse) (g) am Ende,[1]; [10],"1715,2±196,2 g"
same,Massezunahme (g/d),[1]; [10],"45,4±5,4 g/d"
same,Futterverwertung g Futter/g Zunahme,[1]; [10],"1,97±0,24 g Futter/g Zunahme"
same,Futteraufnahme (g/d),[1]; [11],"86,2 g/d"
same,"Futteraufnahme, prozentualer Wert relativ zur Kontrollgruppe",[1]; [11],"101,6%"
same,"Gewicht (Masse) am Ende, prozentualer Wert relativ zur Kontrollgruppe",[1]; [11],"106,4%"
same,"Massezunahme, prozentualer Wert relativ zur Kontrollgruppe",[1]; [11],"106,0%"
same,"Futterverwertung, prozentualer Wert relativ zur Kontrollgruppe",[1]; [11],"95,7%"
same,Gewicht (Masse) (g) am Ende,[1]; [11],"1682,5±253,7 g"
same,Massezunahme (g/d),[1]; [11],"44,4±6,9 g/d"
same,Futterverwertung g Futter/g Zunahme,[1]; [11],"1,99±0,38 g Futter/g Zunahme"
same,Futteraufnahme (g/d),[1]; [12],"83,8 g/d"
same,"Futteraufnahme, prozentualer Wert relativ zur Kontrollgruppe",[1]; [12],"98,7%"
same,"Gewicht (Masse) am Ende, prozentualer Wert relativ zur Kontrollgruppe",[1]; [12],"103,9%"
same,"Massezunahme, prozentualer Wert relativ zur Kontrollgruppe",[1]; [12],"104,3%"
same,"Futterverwertung, prozentualer Wert relativ zur Kontrollgruppe",[1]; [12],"93,8%"
same,Gewicht (Masse) (g) am Ende,[1]; [12],"1643,0±192,3 g"
same,Massezunahme (g/d),[1]; [12],"43,5±5,3 g/d"
same,Futterverwertung g Futter/g Zunahme,[1]; [12],"1,95±0,24 g Futter/g Zunahme"
same,Futteraufnahme (g/d),[1]; [13],"86,7 g/d"
same,"Futteraufnahme, prozentualer Wert relativ zur Kontrollgruppe",[1]; [13],"102,0%"
same,"Gewicht (Masse) am Ende, prozentualer Wert relativ zur Kontrollgruppe",[1]; [13],"103,1%"
same,"Massezunahme, prozentualer Wert relativ zur Kontrollgruppe",[1]; [13],"103,4%"
same,"Futterverwertung, prozentualer Wert relativ zur Kontrollgruppe",[1]; [13],"97,9%"
same,Gewicht (Masse) (g) am Ende,[1]; [13],"1629,5±242,4 g"
same,Massezunahme (g/d),[1]; [13],"43,1±6,6 g/d"
same,Futterverwertung g Futter/g Zunahme,[1]; [13],"2,04±0,33 g Futter/g Zunahme"
same,Futteraufnahme (g/d),[1]; [14],"86,4 g/d"
same,"Futteraufnahme, prozentualer Wert relativ zur Kontrollgruppe",[1]; [14],"101,8%"
same,"Gewicht (Masse) am Ende, prozentualer Wert relativ zur Kontrollgruppe",[1]; [14],"103,9%"
same,"Massezunahme, prozentualer Wert relativ zur Kontrollgruppe",[1]; [14],"103,9%"
same,"Futterverwertung, prozentualer Wert relativ zur Kontrollgruppe",[1]; [14],"97,2%"
same,Gewicht (Masse) (g) am Ende,[1]; [14],"1642,7±182,9 g"
same,Massezunahme (g/d),[1]; [14],"43,3±5,0 g/d"
same,Futterverwertung g Futter/g Zunahme,[1]; [14],"2,02±0,28 g Futter/g Zunahme"
same,Futterverwertung verbessert,[1]; [15],≤ 7%
same,Lebendmassezunahme gegenüber der Kontrollgruppe verbessert,[1]; [15],≤ 9%
